Assay results as given in paper PMC10449633 (Nature Chemical Biology, 2023).
Like-named read-outs stand apart in the source and are kept apart here. Numbered stars: 1 amine (or outer) side, 2 acyl side, 3 side chain; on linkers, the order of the positions; unused ones are H or OH. Square brackets hold non-standard residues; d marks the D form. Peptide text beside a SMILES is read from it. ξ: configuration not given here. X1 = CN(C(Cc1cn(Cc2ccc(Br)cc2)c2ccccc12)C(=O)[*:2])[*:1]; ξAla(CF3) = NC(CC(F)(F)F)C(=O)O; X2 = N#CCCC(O[*:1])C(=O)[*:2]; NMeL = CN[CH](CC(C)C)C(=O)O; NMeA = CN[CH](C)C(=O)O

Molecular target: T1, Sec61 (Homo sapiens, UniProt P61619)
T1 construct: endogenous in cells
T1 sequence (P61619 whole entry): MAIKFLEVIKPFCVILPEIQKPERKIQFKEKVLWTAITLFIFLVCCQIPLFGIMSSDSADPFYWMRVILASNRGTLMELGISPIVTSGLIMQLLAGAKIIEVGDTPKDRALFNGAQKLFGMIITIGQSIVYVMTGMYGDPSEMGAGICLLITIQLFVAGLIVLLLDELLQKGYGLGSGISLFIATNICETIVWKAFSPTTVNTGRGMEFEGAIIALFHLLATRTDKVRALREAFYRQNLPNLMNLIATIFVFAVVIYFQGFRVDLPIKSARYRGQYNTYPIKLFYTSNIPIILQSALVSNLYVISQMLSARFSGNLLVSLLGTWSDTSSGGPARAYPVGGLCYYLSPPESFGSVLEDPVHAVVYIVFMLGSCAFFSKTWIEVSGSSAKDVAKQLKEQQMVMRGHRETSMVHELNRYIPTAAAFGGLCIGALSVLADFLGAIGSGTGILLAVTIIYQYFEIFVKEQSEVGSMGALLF
T1 sequence (P60059 whole entry, further chain): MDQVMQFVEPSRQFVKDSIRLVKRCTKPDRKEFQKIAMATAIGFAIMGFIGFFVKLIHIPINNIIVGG
T1 sequence (P60468 whole entry, further chain): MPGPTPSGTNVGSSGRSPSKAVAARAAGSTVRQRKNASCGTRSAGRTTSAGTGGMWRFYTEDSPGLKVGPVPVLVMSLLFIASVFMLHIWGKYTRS
Assay: signal peptide-GLuc (SP-GLuc) reporter panel, 89 constructs
Type: cell-based
Description: The heat map depicts IC50 values calculated from each SP-GLuc dose–response curve. d, Arthritis was induced in BALB/c mice with antibodies specific for type II collagen (mAb) on day 0 and endotoxin on day 3. On day 4, when the disease was present in all animals, mice were randomized and treated for 2 weeks with thrice weekly (QODx3) or weekly (QW) intravenous administration of vehicle or KZR-8445 or intraperitoneal administration of dexamethasone. Clinical scores (0–4 per paw; n = 10 per group) and body weights were followed until day 14. Data are presented as mean values ± s.d. mAb, monoclonal antibody. Source data
To investigate the effects of KZR-8445 on secretory and membrane protein biogenesis and to establish Sec61α as the relevant target, we quantified the secretion of a doxycycline-inducible Gaussia luciferase (GLuc) reporter fused to the C-terminus of two full-length pro-inflammatory cytokines, interleukin-2 (IL-2) (which contains a cleavable signal peptide) and tumor necrosis factor-alpha (TNFα) (which contains an N-terminal transmembrane anchor). […] KZR-8445 is structurally related to CT8, which discriminates among Sec61 clients based largely on their N-terminal signal peptide. […] We also directly compared KZR-8445 to mycolactone A/B, a structurally distinct and relatively client-nonselective Sec61 inhibitor[8],[25], for their ability to discriminate between vascular cell adhesion molecule (VCAM) and preprolactin (pPL) signal peptides.

In the case of CC(C)CC1NC(=O)C(Cc2cn(Cc3ccc(Br)cc3)c3ccccc23)N(C)C(=O)C(CC(F)(F)F)NC(=O)C(CC(C)C)N(C)C(=O)C(CC(F)(F)F)NC(=O)C(CCC#N)OC(=O)C(C)N(C)C1=O (stereo not drawn) [KZR-8445] (cyclo([X1]L[NMeA][X2][ξAla(CF3)][NMeL][ξAla(CF3)]); configuration not given here), the IC50 (89 signal peptide-GLuc reporters, 24 h, read-out: highest IC50 in the panel) is reported as greater than 25000 nM, the IC50 (89 signal peptide-GLuc reporters, 24 h, read-out: lowest IC50 in the panel) is reported as 5 nM and the IC50 (89 signal peptide-GLuc reporters, 24 h, read-out: median IC50 of the panel) is reported as 366 nM. It also gave an IC50 (ADPGK SP-GLuc, read-out: log10(IC50 8445) (converted)) of 540 nM, an IC50 (ANGPTL3 SP-GLuc, read-out: log10(IC50 8445) (converted)) of 49.4 nM and an IC50 (APOC1 SP-GLuc, read-out: log10(IC50 8445) (converted)) of 135 nM. The IC50 (APP SP-GLuc, read-out: log10(IC50 8445) (converted)) was 449 nM, the IC50 (AXL SP-GLuc, read-out: log10(IC50 8445) (converted)) was 13.8 nM and the IC50 (BCAN SP-GLuc, read-out: log10(IC50 8445) (converted)) was 142 nM. It also gave an IC50 (C1S SP-GLuc, read-out: log10(IC50 8445) (converted)) of 383 nM, an IC50 (CALCA SP-GLuc, read-out: log10(IC50 8445) (converted)) of 721 nM and an IC50 (CALCB SP-GLuc, read-out: log10(IC50 8445) (converted)) of 972 nM. It also gave an IC50 (CD40 SP-GLuc, read-out: log10(IC50 8445) (converted)) of 11300 nM, an IC50 (CD47 SP-GLuc, read-out: log10(IC50 8445) (converted)) of 373 nM and an IC50 (CD96 SP-GLuc, read-out: log10(IC50 8445) (converted)) of 29.2 nM. For the same compound, the IC50 (CD274 SP-GLuc, read-out: log10(IC50 8445) (converted)) was 93.3 nM, the IC50 (CDH1 SP-GLuc, read-out: log10(IC50 8445) (converted)) was 811 nM and the IC50 (CDH2 SP-GLuc, read-out: log10(IC50 8445) (converted)) was 15.5 nM. The IC50 (CDH5 SP-GLuc, read-out: log10(IC50 8445) (converted)) was 76 nM, the IC50 (CNPY2 SP-GLuc, read-out: log10(IC50 8445) (converted)) was 394 nM and the IC50 (CPD SP-GLuc, read-out: log10(IC50 8445) (converted)) was 694 nM. It also gave an IC50 (CR1L SP-GLuc, read-out: log10(IC50 8445) (converted)) of 61.3 nM, an IC50 (CSF2RB SP-GLuc, read-out: log10(IC50 8445) (converted)) of 652 nM and an IC50 (CTLA4 SP-GLuc, read-out: log10(IC50 8445) (converted)) of 343 nM. It also gave an IC50 (DDRGK1 SP-GLuc, read-out: log10(IC50 8445) (converted)) of 1850 nM, an IC50 (DMKN SP-GLuc, read-out: log10(IC50 8445) (converted)) of 2630 nM and an IC50 (DNAJB11 SP-GLuc, read-out: log10(IC50 8445) (converted)) of 4360 nM. It also gave an IC50 (ERBB2 SP-GLuc, read-out: log10(IC50 8445) (converted)) of 536 nM, an IC50 (F3 SP-GLuc, read-out: log10(IC50 8445) (converted)) of 162 nM and an IC50 (FGF23 SP-GLuc, read-out: log10(IC50 8445) (converted)) of 28.2 nM. For the same compound, the IC50 (FLT3 SP-GLuc, read-out: log10(IC50 8445) (converted)) was 360 nM, the IC50 (FNDC10 SP-GLuc, read-out: log10(IC50 8445) (converted)) was 726 nM and the IC50 (FURIN SP-GLuc, read-out: log10(IC50 8445) (converted)) was 4740 nM. For the same compound, the IC50 (GAS6 SP-GLuc, read-out: log10(IC50 8445) (converted)) was 118 nM, the IC50 (HJV SP-GLuc, read-out: log10(IC50 8445) (converted)) was 427 nM and the IC50 (HLA-G SP-GLuc, read-out: log10(IC50 8445) (converted)) was 39.2 nM. For the same compound, the IC50 (HSPA13 SP-GLuc, read-out: log10(IC50 8445) (converted)) was 1110 nM, the IC50 (IGF1R SP-GLuc, read-out: log10(IC50 8445) (converted)) was 814 nM and the IC50 (IL1RAP SP-GLuc, read-out: log10(IC50 8445) (converted)) was 101 nM. For the same compound, the IC50 (IL4R SP-GLuc, read-out: log10(IC50 8445) (converted)) was 32 nM, the IC50 (IL4 SP-GLuc, read-out: log10(IC50 8445) (converted)) was 359 nM and the IC50 (IL5RA SP-GLuc, read-out: log10(IC50 8445) (converted)) was 1310 nM. For the same compound, the IC50 (IL5 SP-GLuc, read-out: log10(IC50 8445) (converted)) was 1300 nM, the IC50 (IL6R SP-GLuc, read-out: log10(IC50 8445) (converted)) was 92.3 nM and the IC50 (IL6 SP-GLuc, read-out: log10(IC50 8445) (converted)) was 155 nM. The IC50 (IL6ST SP-GLuc, read-out: log10(IC50 8445) (converted)) was 56.5 nM, the IC50 (IL7 SP-GLuc, read-out: log10(IC50 8445) (converted)) was 5.23 nM and the IC50 (IL10 SP-GLuc, read-out: log10(IC50 8445) (converted)) was 434 nM. It also gave an IC50 (IL11 SP-GLuc, read-out: log10(IC50 8445) (converted)) of 183 nM, an IC50 (IL12B SP-GLuc, read-out: log10(IC50 8445) (converted)) of 109 nM and an IC50 (IL12RB1 SP-GLuc, read-out: log10(IC50 8445) (converted)) of 64.4 nM. For the same compound, the IC50 (IL13 SP-GLuc, read-out: log10(IC50 8445) (converted)) was 59.1 nM, the IC50 (IL15RA SP-GLuc, read-out: log10(IC50 8445) (converted)) was 294 nM and the IC50 (IL15 SP-GLuc, read-out: log10(IC50 8445) (converted)) was 116 nM. It also gave an IC50 (IL17A SP-GLuc, read-out: log10(IC50 8445) (converted)) of 318 nM, an IC50 (IL17F SP-GLuc, read-out: log10(IC50 8445) (converted)) of 228 nM and an IC50 (IL17RA SP-GLuc, read-out: log10(IC50 8445) (converted)) of 408 nM.
